# In US20220280501A1, “USING GENO- OR P[…] ADJUST LSD DOSING” (Universitätsspital Basel, priority 2021, published 2022):
# Entries after “also recorded” stand apart in the source; their conditions may differ. Like-named read-outs stand apart in the source and are kept apart here.
# Assays:
# [1] = Acute subjective effects of LSD (VAS, 5D-ASC) by genotype, pooled phase 1 studies; type: in vivo, humans
# Procedure: The Visual Analog Scales (VASs, FIG. 14, Table S5) were presented as 100 mm horizontal lines (0-100%), marked from “not at all” on the left to “extremely” on the right. Subjective effects like “closeness”, “talkative”, “open”, “concentration”, “speed of thinking”, and “trust” were bidirectional (±50 mm). The VASs were applied before and 0, 0.5, 1, 1.5, 2, 2.5, 3, 4, 5, 6, 7, 8, 9 and 10 h after LSD or placebo administration.
# The 5 Dimensions of Altered States of Consciousness (5D-ASC) scale (Dittrich, 1998; Studerus et al., 2010) was administered at the end of the acute drug effects to retrospectively rate peak drug responses. The main subscales describing alterations of consciousness are Oceanic Boundlessness (OB), Anxious of Ego Dissolution (AED), Visionary Restructuralization (VR) (FIG. 16).
# [2] = Autonomic (physiological) effects of LSD, pooled phase 1 studies; type: in vivo, humans
# Procedure: Blood pressure, heart rate, and body temperature were assessed repeatedly before and 0, 0.5, 1, 1.5, 2, 2.5, 3, 4, 5, 6, 7, 8, 9, and 10 h after LSD or placebo administration. Systolic and diastolic blood pressure and heart rate were measured using an automatic oscillometric device (OMRON Healthcare Europe NA, Hoofddorp, Netherlands). The measurements were performed in duplicate at an interval of 1 minute and after a resting time of at least 5 minutes. The averages were calculated for the analysis. Mean arterial pressure (MAP) was calculated as diastolic blood pressure+(systolic blood pressure−diastolic blood pressure)/3. The rate pressure product (RPP) was calculated as systolic blood pressure×heart rate. Core (tympanic) temperature was measured using a Genius 2 ear thermometer (Tyco Healthcare Group LP, Watertown, N.Y., USA).
# [3] = cited from earlier work; for duration of LSD effects (mean±SD) / duration of LSD effects (range): Dolder et al., 2017b
# [4] = Holze et al., 2021b; cited from earlier work
# [5] = cited from earlier work; for subjects with bad drug effects (50% or more on a 0-100% scale at any time point): Dolder et al., 2017a
# [6] = human, Dolder et al., 2015; cited from earlier work
# [7] = test system: cytochrome P450 enzymes (CYPs); conditions: human liver microsomes; cited from earlier work
# [8] = test system: cytochrome P450 enzymes (CYPs); conditions: human liver S9 fraction; cited from earlier work
# [9] = Pharmacokinetics of LSD by CYP genotype, pooled analysis of four phase 1 studies; conditions: for Cmax: human, oral, 100 ug, LSD Cmax, compartmental modeling, 100 μg LSD dose, mean±SD
# [10] = non-compartmental analysis, plasma
# [11] = non-functional vs functional CYP2D6
smiles,measurement,setting,value
"CCN(CC)C(=O)[C@@H]1C=C2c3cccc4[nH]cc(c34)C[C@H]2N(C)C1 [LSD, Lysergic acid diethylamide]","alterations of the mind (5D-ASC total, AED and VR subscales), CYP2D6 PMs compared with functional CYP2D6 subjects",[1]; 5D-ASC,significantly greater alterations of the mind
same,"5D-ASC total score and VR subscale, homozygous carriers of HTR1A rs6295 G allele vs carriers of a C allele",[1]; HTR1A rs6295,"rated lower; also recorded: lower total 5D-ASC, Visionary Restructuralization, and Blissful State ratings"
same,"5D-ASC total score and AED subscale, carriers of two HTR2A rs6313 A alleles vs G allele carriers",[1]; HTR2A rs6313,lower ratings; also recorded: lower alterations of the mind
same,"duration of the acute subjective response, CYP2D6 PMs compared with functional CYP2D6 subjects",[1]; VAS any drug effect,substantially longer duration; also recorded: longer subjective effect durations
same,acute subjective effects compared to placebo,[1]; healthy subjects,significant acute subjective effects on all scales
same,"vital parameters, effect of 5-HT receptor genotypes","[2]; HTR1A, HTR1B, HTR2A genotypes",not affected
same,"blood pressure, heart rate, and body temperature compared to placebo",[2]; healthy subjects,moderately increased
same,effect of CYP2D6 genotype on the autonomic response,[2]; in vivo,no relevant effect
same,duration of LSD effects (mean±SD),[3]; 100 μg,8.2 ± 2.1 h
same,duration of LSD effects (range),[3]; 100 μg,5 to 14 h
same,duration of subjective effects (mean±SD),"[3]; 100 μg, Holze et al., 2019",8.5 ± 2.0 h
same,duration of subjective effects (range),"[3]; 100 μg, Holze et al., 2019",5.3 to 12.8 h
same,duration of LSD effects (mean±SD),[3]; 200 μg,11.6 ± 1.7 h
same,duration of LSD effects (range),[3]; 200 μg,7 to 19.5 h
same,"5D-ASC OB, AED and anxiety ratings, 200 μg compared to 100 μg",[4],did not result in higher OB ratings but increased AED and anxiety
same,subjects with bad drug effects (50% or more on a 0-100% scale at any time point),"[5]; 100 μg, 3 of 24 subjects",12.5%
same,subjects with transient bad drug effects,"[5]; 100 μg, 7 of 24 subjects, Holze et al., 2019a",29%
same,subjects with bad drug effects (50% or more on a 0-100% scale at any time point),"[5]; 200 μg, 9 of 16 subjects",56%
same,subjects with marked anxiety,"[5]; 200 μg, sixteen healthy humans, Schmid et al., 2015",two
same,parent drug excreted in urine,[6],~1%
same,CYPs contributing to the N-demethylation of LSD to 6-nor-LSD (Nor-LSD),[7],"CYP2D6, 3A4, and 2E1"
same,CYPs taking part in the formation of the main metabolite 2-oxo-3-hydroxy-LSD (O-H-LSD),[7],"CYP2C9, CYP1A2, CYP2E1, and CYP3A4"
same,CYPs contributing to the hydroxylation of LSD,[8],CYP1A2 and CYP3A4
same,CYPs involved in the formation of Nor-LSD,[8],CYP2C19 and 3A4
same,effect of genetic polymorphisms of other CYPs on pharmacokinetics or subjective or autonomic effects,"[9]; CYP1A2, CYP2B6, CYP2C19, CYP2C9",no relevant effect
same,exposure to LSD with lower CYP2D6 activity across all CYP2D6 genotype activity score groups,[9]; CYP2D6 activity score groups,significantly higher exposure
same,effect of sex or body weight on pharmacokinetics / concentration of LSD in plasma,[9]; LSD AUC∞ z-score vs body weight,no relevant effect; also recorded: did not relevantly alter
same,Cmax,"[9]; plasma, CYP2D6 PMs (non-functional, N=7)",2.37 ± 0.891 ng/mL
same,Cmax,"[9]; plasma, functional CYP2D6 subjects (N=74)",2.06 ± 0.999 ng/mL
same,"AUC∞ and AUC10 values, CYP2D6 PMs compared with functional CYP2D6 carriers",[9]; [10],significantly larger
same,"Cmax, effect of CYP2D6 function",[9]; [10],not significantly affected
same,"area under the curve blood plasma concentration (total drug exposure), higher in CYP2D6 poor metabolizers than in functional CYP2D6 carriers",[9]; [11],approximately 75%
same,"half-life (T1/2), CYP2D6 PMs compared with functional CYP2D6 subjects",[9]; [11],longer
same,"mean peak concentration, higher in CYP2D6 PMs than in functional CYP2D6","[9]; non-functional vs functional CYP2D6, non-significant",approximately 15%
"CCN(CC)C(=O)[C@@H]1C=C2c3cccc4c3C(O)(C[C@H]2N(C)C1)C(=O)N4 (stereo partly drawn) [O-H-LSD, 2-oxo-3-hydroxy LSD]","AUC∞ values, CYP2D6 PMs compared with functional CYP2D6 subjects",[9]; metabolite in plasma after LSD administration,larger
same,"area under the curve blood plasma concentration (total drug exposure), higher in CYP2D6 poor metabolizers than in functional CYP2D6 carriers",[9]; [11],approximately 75%
